Data reported in US20250326865A1, “C-MET PROTEIN-BINDING PEPTIDE COMPLEX” (PeptiDream Inc., priority 2021, published 2025).
Starred links: 1 amine or outer side, 2 acyl side, 3 side chain; linkers in the order of their positions; H or OH if unused. Positions of bridges follow the written chain, without caps; N, C: chain ends. Non-standard residues stand in square brackets, D forms with d. Residues, ends and D or L forms follow the SMILES beside them. Primed or numbered codes have the meaning given here. Chains are numbered I, II in the order given. No end group written: not given here. X1 = O=C(OCCOCCOCCOCCOCCOCCOCCOCCOCCOCCOCCOCCOC(=O)[*:2])[*:1]; NMeF = CN[C@@H](Cc1ccccc1)C(=O)O; Ahp(2) = CCCCC[C@H](N)C(=O)O; NMeC = CN[C@@H](CS)C(=O)O; Ahp′ = not defined here

Key:
Type in all cases: cell-based
HGF R = target: T1, HGF R (Homo sapiens, UniProt P08581); assay: Human Phospho-RTK array assay in A431 cells; details: 10 minutes of stimulation, 2 nM complex, 7.8 nM HGF
T1 construct: endogenous in cells; host or cells: A431
Protocol: A431 cells were cultured in DMEM high glucose, GlutaMAX (registered trademark) Supplement, pyruvate (Thermo Fisher Scientific), containing 10% FBS (Gibco). After cells were detached using Accutase (registered trademark) (Innovative cell technologies), they were seeded into a 6-well plate at 1000000 cells per well and cultured overnight.
The next day, for starvation, the culture medium was changed to DMEM high glucose, GlutaMAX (registered trademark) Supplement, pyruvate (Thermo Fisher Scientific), containing an assay medium (0.1% BSA (Sigma-Aldrich)), and the cells were cultured overnight. Then, 7.8 nM Recombinant Human HGF Protein (R&D systems) or 2 nM complex (GFs_c-Met 00014336-PEG9 dimer; peptide complex No. 51 in Table 4) of peptide (SEQ ID NO: 34) synthesized in Example 2 and a linker (SEQ ID NO: 36) was added, and after 10 minutes of stimulation, cells were lysed in a Lysis Buffer provided in the Proteome Profiler Human Phospho-RTK Array Kit (R & D systems). Thereafter, the procedure was performed according to the protocol of the kit, and chemiluminescent signals by WesternSure (registered trademark) PREMIUM chemiluminescent substrate kit (LI-COR) were detected using C-DiGit (registered trademark) (Scrum).
In (2) in FIG. 5, a is the result of no addition, b is of addition of HGF, and c of addition of the peptide complex.

c-Met = target: T2, c-Met (Homo sapiens, UniProt P08581); assay: Phospho-c-Met AlphaLISA assay (c-Met agonist activity) in A431 cells; details: phospho-c-Met AlphaLISA, A431 cells, FIG. 1; read-out: EC50 (c-Met agonist activity)
T2 construct: endogenous in cells; host or cells: A431 (human)
Procedure, shortened: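 Human A431 cells serum-starved overnight in 0.1% BSA medium, then stimulated 15 min with peptide complex, with HGF as control. Phospho-c-Met (Tyr1234/1235) in lysates measured by AlphaLISA SureFire Ultra. C50 is the peptide concentration giving 50% of the HGF-induced signal.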

[1] = tested on: Normal human umbilical vein vascular endothelial cells (HUVECs); details: HUVEC, cultured for 2 days after addition, FIG. 2; read-out: EC50 (HUVEC cell proliferation)
Protocol: In order to evaluate the biological activity of the peptide complex of the present invention, the cell proliferation inducing activity was verified. Normal human umbilical vein vascular endothelial cells (HUVECs) were cultured using HuMedia-EG2 (KURABO INDUSTRIES LTD.). After cells were detached using Accutase (Innovative cell technologies), they were resuspended in a Medium without serum or growth factors (Cell system) containing 5% FBS (MBL), seeded into a 96-well plate at 10000 cells per well, and cultured overnight. The next day, a complex (GFs_c-Met-00014336-PEG13 dimer; peptide complex no. 49 in Table 4) of the peptide (SEQ ID NO: 34) synthesized in Example 2 and a linker (SEQ ID NO: 37), or Recombinant Human HGF Protein (R&D systems) as a control was added and cultured for another 2 days. The medium was then removed and the cell count was determined quantitatively using the CellTiter-Glo (registered trademark) Luminescent Cell Viability Assay reagent (Promega) according to the protocol provided. A SpectraMax (registered trademark) Paradigm (registered trademark) multimode microplate reader (Molecular Devices, LLC.) was used for detection. The obtained signal value was analyzed by GraphPad Prism, and EC50 was calculated.

[2] = tested on: Renal proximal tubule epithelial cells (RPTEC); assay: Evaluation of tube formation in collagen gel
Protocol: Renal proximal tubule epithelial cells (RPTEC) were cultured in a growth medium (Renal Epithelial Cell Basal Medium (REBM)+0.5% FBS+2.4 mM L-Alanyl-L-Glutamine+10 nM Triiodothyronine+10 ng/mL rh EGF+100 ng/mL Hydrocortisone Hemisuccinate+5 μg/mL rh Insulin+1 μM Epinephrine+5 μg/mL Transferrin) (ATCC). The cells were detached using Trypsin-EDTA, and then resuspended in an assay medium (REBM+0.5% FBS+2.4 mM L-Alanyl-L-Glutamine+10 nM Triiodothyronine+100 ng/mL Hydrocortisone Hemisuccinate+1 μM Epinephrine+5 μg/mL Transferrin+1.8 mM CaCl2).
RPTECs were resuspended in a mixture of Cellmatrix (registered trademark) Type I-A (Nitta Gelatin Inc.), concentrated culture solution (Nitta Gelatin Inc.) and a reconstitution buffer solution (Nitta Gelatin Inc.) on ice according to the instructions. […]
To the assay medium, 2 nM HGF, 1.6 nM EGF or a complex GFs_c-Met-00014336-PEG13 dimer; peptide complex No. 49 in Table 4) of a peptide (SEQ ID NO: 34) synthesized in Example 2 and a linker (SEQ ID NO: 37) at 0.08, 0.4, 2, and 10 nM, was added and 400 μL of each resultant mixture was added to each well of 48-well plate to which the gelated suspension had been added as mentioned above. […] The presence or absence of tube formation was observed and evaluated using a phase-contrast microscope on the third day and the eighth day of the start of the culturing.

T1 sequence (P08581 25-1390): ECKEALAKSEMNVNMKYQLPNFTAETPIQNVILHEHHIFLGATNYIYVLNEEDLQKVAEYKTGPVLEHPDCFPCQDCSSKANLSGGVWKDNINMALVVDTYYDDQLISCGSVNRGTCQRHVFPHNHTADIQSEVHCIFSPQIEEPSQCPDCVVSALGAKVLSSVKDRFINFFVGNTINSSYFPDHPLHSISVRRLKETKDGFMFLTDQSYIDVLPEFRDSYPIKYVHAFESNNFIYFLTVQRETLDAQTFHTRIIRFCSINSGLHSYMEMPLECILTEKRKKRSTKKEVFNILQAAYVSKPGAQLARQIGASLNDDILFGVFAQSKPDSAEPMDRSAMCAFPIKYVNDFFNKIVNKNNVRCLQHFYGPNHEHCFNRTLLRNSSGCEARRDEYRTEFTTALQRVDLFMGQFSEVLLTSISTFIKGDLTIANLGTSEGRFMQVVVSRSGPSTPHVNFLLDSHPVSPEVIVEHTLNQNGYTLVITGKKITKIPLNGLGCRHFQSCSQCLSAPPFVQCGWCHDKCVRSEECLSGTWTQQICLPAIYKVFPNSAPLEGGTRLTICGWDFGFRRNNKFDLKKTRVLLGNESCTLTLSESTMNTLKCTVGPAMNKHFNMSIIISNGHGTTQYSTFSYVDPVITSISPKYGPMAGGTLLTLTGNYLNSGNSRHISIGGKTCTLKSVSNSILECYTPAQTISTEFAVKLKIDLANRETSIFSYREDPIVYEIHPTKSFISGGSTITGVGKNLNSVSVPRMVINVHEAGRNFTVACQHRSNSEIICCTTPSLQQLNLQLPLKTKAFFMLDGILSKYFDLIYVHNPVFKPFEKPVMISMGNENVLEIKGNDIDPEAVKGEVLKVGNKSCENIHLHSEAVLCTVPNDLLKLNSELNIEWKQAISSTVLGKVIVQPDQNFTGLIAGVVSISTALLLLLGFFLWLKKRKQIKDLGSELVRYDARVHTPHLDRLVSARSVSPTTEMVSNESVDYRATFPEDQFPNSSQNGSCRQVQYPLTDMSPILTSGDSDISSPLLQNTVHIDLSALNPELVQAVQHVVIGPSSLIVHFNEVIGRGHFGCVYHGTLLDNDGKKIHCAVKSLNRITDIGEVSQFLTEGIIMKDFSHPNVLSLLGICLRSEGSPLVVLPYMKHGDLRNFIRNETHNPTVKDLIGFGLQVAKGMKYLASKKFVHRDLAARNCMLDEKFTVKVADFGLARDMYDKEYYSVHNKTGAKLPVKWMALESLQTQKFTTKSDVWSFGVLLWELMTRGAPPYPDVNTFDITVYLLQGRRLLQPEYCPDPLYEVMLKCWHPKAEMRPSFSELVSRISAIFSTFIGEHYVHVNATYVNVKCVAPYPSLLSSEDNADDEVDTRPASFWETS
T2 sequence (P08581 25-1390): as above

## 51 ({CH2CO}-[NMeF]TAVS[NMeF]DED[Ahp′]PRWS[NMeC]; thioether N-15 (inferred); not fully specified; reading uncertain; also: conjugated moiety via linker) [compound 51]
HGF R
  specific phosphorylation pattern of receptor tyrosine kinases: Only HGF R was specifically phosphorylated

## HGF: Recombinant Human HGF Protein (R&D systems), hepatocyte growth factor, used as a control
HGF R
  specific phosphorylation pattern of receptor tyrosine kinases: Only HGF R was specifically phosphorylated
c-Met
  EC50: 660 pM
[1]
  EC50: 370 pM

## CCCCC[C@@H]1NC(=O)[C@H](CC(=O)O)NC(=O)[C@H](CCC(=O)O)NC(=O)[C@H](CC(=O)O)NC(=O)[C@H](Cc2ccccc2)N(C)C(=O)[C@H](CO)NC(=O)[C@H](C(C)C)NC(=O)[C@H](C)NC(=O)[C@H]([C@@H](C)O)NC(=O)[C@H](Cc2ccccc2)N(C)C(=O)CSC[C@@H](C(=O)NCC(=O)N[C@@H](CCCCNC(=O)OCCOCCOCCOCCOCCOCCOCCOCCOCCOCCOCCOCCOC(=O)NCCCC[C@H](NC(=O)CNC(=O)[C@@H]2CSCC(=O)N(C)[C@@H](Cc3ccccc3)C(=O)N[C@@H]([C@@H](C)O)C(=O)N[C@@H](C)C(=O)N[C@@H](C(C)C)C(=O)N[C@@H](CO)C(=O)N(C)[C@@H](Cc3ccccc3)C(=O)N[C@@H](CC(=O)O)C(=O)N[C@@H](CCC(=O)O)C(=O)N[C@@H](CC(=O)O)C(=O)N[C@@H](CCCCC)C(=O)N3CCC[C@H]3C(=O)N[C@@H](CCCNC(=N)N)C(=O)N[C@@H](Cc3c[nH]c4ccccc34)C(=O)N[C@@H](CO)C(=O)N2C)C(N)=O)C(N)=O)N(C)C(=O)[C@H](CO)NC(=O)[C@H](Cc2c[nH]c3ccccc23)NC(=O)[C@H](CCCNC(=N)N)NC(=O)[C@@H]2CCCN2C1=O [compound 49] (I: {CH2CO}-[NMeF]TAVS[NMeF]DED[Ahp(2)]PRWS[NMeC]GK-NH2 / II: {CH2CO}-[NMeF]TAVS[NMeF]DED[Ahp(2)]PRWS[NMeC]GK-NH2; linker I:17-II:17 via X1 (inferred); thioether I:N-I:15, II:N-II:15 (inferred); C-terminus assumed)
[2]; RPTEC in collagen gel, 0.08-10 nM, third and eighth day, phase-contrast microscope
  tube formation: promoted tube formation
[2]; RPTEC, 10 nM complex, eighth day (f of FIG. 4)
  tube formation with branching: not only tube formation but also branch formation was promoted
[1]
  EC50: 550 pM
